From US12083129B2, “Treatment of breast cancer using combination therapies comprising an ATP competitive AKT inhibitor, a CDK4/6 inhibitor, and fulvestrant” (Genentech, Inc., priority 2019, dated 2024)

System: breast cancer cell lines
Experiment: single agent sensitivity of breast cancer cell lines
Type: cell-based
Conditions: FIG. 1A and 1B
Experimental: Cell lines were treated with agents described herein (e.g. ipatasertib, palbociclib, and fulvestrant). […] (See FIG. 1A and FIG. 1B). There was synergy between ipatasertib and palbociclib as show by the BLISS scores of FIGS. 2A, 2B, 2C, and 2D. […] The percent weight loss resulting from treatment is shown by FIGS. 8A and 8B.

Row | Structure (SMILES) | single agent sensitivity of breast cancer cell lines
1 | CC(=O)c1c(C)c2cnc(Nc3ccc(N4CCNCC4)cn3)nc2n(C2CCCC2)c1=O [palbociclib, 6-acetyl-8-cyclopentyl-5-methyl-2-{[5-(piperazin-1-yl)pyridin-2-yl]amino}pyrido[2,3-d]pyrimidin-7(8H)-one] | differential single agent sensitivity
2 | CC(C)NC[C@@H](C(=O)N1CCN(c2ncnc3c2[C@H](C)C[C@H]3O)CC1)c1ccc(Cl)cc1 [ipatasertib, (S)-2-(4-chlorophenyl)-1-(4-((5R,7R)-7-hydroxy-5-methyl-6,7-dihydro-5H-cyclopenta[d]pyrimidin-4-yl)piperazin-1-yl)-3-(isopropylamino)propan-1-one] | differential single agent sensitivity
